Paper PMC6268492, “Synthesis and Antiangiogenic Activity of Novel Gambogic Acid Derivatives” (Molecules, 2012)
Where two headings read alike, the source gives them in different places.

Assays:
LO2 = assay: MTT assay, cytotoxicity; assay type: cell-based; details: Homo sapiens, L02, 24 h, read-out: IC50, inhibition of cell proliferation
Experimental: (§1) HepG2, HCT116, HeLa and LO2 cell lines were cultured in DMEM containing 10% fetal bovine serum (FBS), 100 IU/mL penicillin and 100 µg/mL streptomycin; A549 and K562 cell lines were cultured in RPMI 1640 medium containing 10% fetal bovine serum (FBS), 100 IU/mL penicillin and 100 µg/mL streptomycin; Human umbilical vein endothelial cells (HUVECs) were cultured on gelatin-coated culture flasks in M-199 medium with 20% fetal bovine serum (FBS), 2 ng/mL VEGF, 10 ng/mL basic FGF, 100 IU/mL penicillin, and 100 μg/mL streptomycin; all of them were obtained from the American Type Culture Collection (ATCC) and all cell lines were incubated in an atmosphere of 5% CO2 at 37 °C.
(§2) Cells were treated with various concentrations of compound in 96-well culture plates for 24 h in final volumes of 200 μL (5 × 10^3 cells/well). Then 20 μL of MTT solution (5 mg/mL) was added to each well, and cells were incubated for an additional 3 h. Then the medium was carefully removed, and precipitates were dissolved in 150 μL of DMSO, shaken mechanically for 30 min, and then absorbance values at a wavelength of 570 nm were taken on a spectrophotometer (Molecular Devices, Sunnyvale, CA, USA). Values were calculated using percentage of growth versus untreated control. The IC50 was defined as the concentration that caused 50% inhibition of cell proliferation, and was calculated by SAS statistical software.

HUVEC = assay: MTT assay, cell proliferation; assay type: cell-based, Human; details: Homo sapiens, 24 h, read-out: IC50, inhibition of cell proliferation
Experimental: Inhibiting the proliferation of ECs is another important strategy for antiangiogenesis. […] As the exposure time of these derivatives was 24 h in the migration assay and 6 h in the tube formation assay, the effect of the incubation for 24 h in the presence of these compounds on HUVECs proliferation was then tested. Cell viability was assessed by the MTT method. We can see from Table 4 that these compounds had different antiproliferative activities.
as §1, §2

HeLa = assay: MTT assay, cell proliferation; assay type: cell-based; details: Homo sapiens, 24 h, read-out: IC50, inhibition of cell proliferation
Experimental: as §1, §2

HCT116 = assay: MTT assay, cell proliferation; assay type: cell-based; details: Homo sapiens, HCT-116, 24 h, read-out: IC50, inhibition of cell proliferation
Experimental: as §1, §2

A549 = assay: MTT assay, cell proliferation; assay type: cell-based; details: Homo sapiens, 24 h, read-out: IC50, inhibition of cell proliferation
Experimental: as §1, §2

HepG2 = assay: MTT assay, cell proliferation; assay type: cell-based; details: Homo sapiens, 24 h, read-out: IC50, inhibition of cell proliferation
Experimental: as §1, §2

K562 = assay: MTT assay, cell proliferation; assay type: cell-based; details: Homo sapiens, 24 h, read-out: IC50, inhibition of cell proliferation
Experimental: as §1, §2

[1] = test system: transgenic fli-1: enhanced GFP zebrafish embryos; assay: Zebrafish embryo assay: antiangiogenic effects; assay type: in vivo, zebrafish (Danio rerio)
Experimental: As stated previously, zebrafish is regarded as a powerful tool in the study of human diseases. […] In this study, all GA derivatives were incubated with the transgenic friend leukemia integration-1 (fli-1): enhanced GFP zebrafish embryos which carried a fli-1 promoter which can drive the expression of GFP in the whole endothelium.
Figure 1 Effects on neovascularization in zebrafish embryos. The transgenic fli-1: enhanced GFP zebrafish embryos in embryo water (0.2 g/L of instant ocean salt in distilled water) incubated with 1 μM of compounds at 6 h postfertilization (hpf) for 24 h. Zebrafish embryos were imaged (Imager.Z1, magnification: left, 40×; right, 100×).
Using transgenic fli-1: enhanced GFP zebrafish embryos, we investigated the effects of all compounds on angiogenesis. […] At about 6 h post fertilization (hpf), the embryos were sorted in the 6-well plate (six embryos/well), removing dead and unhealthy embryos. Then the embryos were treated with the indicated concentrations of compounds which were added into embryo water. After incubation for 24 or 48 h, the embryos were anesthetized using 0.05% 2-phenoxyethanol in embryo water, quantified and photographed.

Compound | IC50 (LO2) | IC50 (HUVEC) | IC50 (HeLa) | IC50 (HCT116) | IC50 (A549) | IC50 (HepG2) | IC50 (K562) | antiangiogenic activities ([1]; 2.5 μM, not enhanced greatly at 10 μM) | inhibition in vivo at 1 µM ([1]; Danio rerio, zebrafish embryos, read-out: antiangiogenic rates) | inhibition in vivo at 1 µM ([1]; Danio rerio, zebrafish embryos, vs vehicle (0.05% DMSO), read-out: Anti-angiogenic phenotype) | inhibition in vivo at 2.5 µM ([1]; Danio rerio, 2.5 μM, zebrafish embryos, vs vehicle (0.05% DMSO), read-out: Anti-angiogenic phenotype) | inhibition in vivo at 10 µM ([1]; Danio rerio, 10 μM, zebrafish embryos, vs vehicle (0.05% DMSO), read-out: Anti-angiogenic phenotype)
CCCC(=O)Nc1ccc(OC(=O)/C(C)=C\CC23OC(C)(C)C4CC(C=C5C(=O)c6c(O)c7c(c(CC=C(C)C)c6OC542)OC(C)(CCC=C(C)C)C=C7)C3=O)cc1 (centres unmarked) [Compound 26, 4-Butyramidophenyl gambogate] | 4.22 ± 0.5 µM | 2.98 ± 0.1 µM | 4.46 ± 0.57 µM | 1.73 ± 0.44 µM | 4 ± 0.8 µM | 1.72 ± 0.12 µM | 0.77 ± 0.03 µM | moderate | 25 to 50% | 25 to 50% | 25 to 50% | 25 to 50%
CC(=O)Nc1ccccc1OC(=O)/C(C)=C\CC12OC(C)(C)C3CC(C=C4C(=O)c5c(O)c6c(c(CC=C(C)C)c5OC431)OC(C)(CCC=C(C)C)C=C6)C2=O (centres unmarked) [Compound 27, 2-Acetamidophenyl gambogate] | 1.52 ± 0.12 µM | 0.5 ± 0.03 µM | 3.51 ± 0.15 µM | 1.05 ± 0.07 µM | 1.22 ± 0.25 µM | 0.69 ± 0.08 µM | 0.52 ± 0.02 µM | – | – | – | – | –
CC(C)=CCCC1(C)C=Cc2c(O)c3c(c(CC=C(C)C)c2O1)OC12C(=CC4CC1C(C)(C)OC2(C/C=C(/C)C(=O)Sc1nccs1)C4=O)C3=O (centres unmarked) [Compound 29, S-thiazol-2-yl gambogthioate] | 4.28 ± 0.33 µM | 6.64 ± 0.11 µM | 1.45 ± 0.07 µM | 1.63 ± 0.15 µM | 0.63 ± 0.01 µM | 0.85 ± 0.15 µM | 0.79 ± 0.06 µM | – | – | – | – | –
CC(=O)Nc1ccc(SC(=O)/C(C)=C\CC23OC(C)(C)C4CC(C=C5C(=O)c6c(O)c7c(c(CC=C(C)C)c6OC542)OC(C)(CCC=C(C)C)C=C7)C3=O)cc1 (centres unmarked) [Compound 30, 4-Acetamidophenyl gambogthioate] | 2.84 ± 0.34 µM | 1.03 ± 0.07 µM | 3.43 ± 0.28 µM | 1.33 ± 0.07 µM | 1.24 ± 0.09 µM | 1.72 ± 0.03 µM | 0.44 ± 0.02 µM | – | – | – | – | –
CC(C)=CCCC1(C)C=Cc2c(O)c3c(c(CC=C(C)C)c2O1)OC12C(=CC4CC1C(C)(C)OC2(C/C=C(/C)C(=O)n1cccn1)C4=O)C3=O (centres unmarked) [Compound 33, 1-Gambogyl pyrazole] | 1.75 ± 0.09 µM | 0.57 ± 0.03 µM | 4.23 ± 0.39 µM | 1.2 ± 0.09 µM | 1.3 ± 0.08 µM | 1 ± 0.06 µM | 0.53 ± 0.05 µM | – | – | – | – | –
CC(C)=CCCC1(C)C=Cc2c(O)c3c(c(CC=C(C)C)c2O1)OC12C(=CC4CC1C(C)(C)OC2(C/C=C(/C)C(=O)Nc1nc2ccccc2s1)C4=O)C3=O (centres unmarked) [Compound 34, N-(benzo[d]thiazol-2-yl) gambogamide] | 7.3 ± 1.2 µM | 5.63 ± 0.2 µM | > 80 µM | 7.74 ± 1.43 µM | 21.4 ± 3.71 µM | 8.65 ± 0.46 µM | > 20 µM | – | – | – | – | –
